Legend:
[1] = system: blood CSF barrier brain OrG (ChP OrG); assay: ChP OrG drug permeability into CSF (optical density of collected CSF); type: cell-based, human; conditions: 72 h, SLCP Cur 500 μM, CSF collected via syringe
Method: (§1) FIG. 6A-6H. ChP OrG efficiently screens drug permeability. (FIG. 6A) We have used curcumin (Cur), a natural polyphenolic antioxidant that can disaggregate Amyloid beta (AB) and tau. (FIG. 6B) We have prepared the Cur with H2O and lipids to generate a solid lipid curcumin particle (SLCP). […] (FIG. 6D-6F) We added SLCP and non-formulated (H2O dissolved) Cur to the blood CSF barrier brain OrG (ChP OrG) for 72 h and obtained images. (FIG. 6G) We then collected CSF via a syringe and processed it to measure optical density using a plate reader to determine whether SLCP Cur (500 μM) was permeable into CSF. […] Our novel B-CSFb grown on an HT electrode plate is highly efficient in studying drug permeability on the HT scale and provides insight into using our ChP OrG to accelerate the drug development process for various CNS diseases. Scale bar 100 μm.
To generate ChP OrG, we use methods similar to those used to generate cCerebral OrG, except for the composition of OrGspheroid SRB media, which contained 50% KSR, 0.1% lipid-rich albumin (AlbuMAX), including all other components as stated in Example 1. For ChP OrG, neural induction was up to 9 days. Neural induction medium was the same as Example 2. Further, neural-induced OrGspheroid (>500 μm) was seeded with gel-matrix domes with a volume of OrGspheroid to MvECs at a 1:20 ratio. […]

[2] = Preparation of curcumin with H2O (visual); type: physicochemical; conditions: glass vial, non-formulated
Method: as §1

[3] = system: synaptophysin and PSD-95 in cCerebral OrG; assay: ICC of synaptic marker proteins in cCerebral OrG injected with AD toxic proteins; type: cell-based, human; conditions: AB or tau alone, injected twice with 10-50 μl (1 mg/ml)
Method: FIG. 8A-8D. Verify compatibility to screening NGL ready-to-use brain OrG in other screening platforms with multiple agents. (FIG. 8A) NGL cCerebral was injected twice with 10-50 μl (1 mg/ml) of Alzheimer's disease (AD) toxic proteins (AB and tau oligomers). (FIG. 8B) We found AB and tau together, especially 50 μg concentration, reduced in higher levels of pre- and post-synaptic density marker proteins (synaptophysin and PSD-95) compared to 10 μg concentrations using ICC. […] (FIG. 8C) We compared synaptic loss with the electrode plate signal developed by Applied Biophysics (ABP). We have plated our cCerebral OrG onto ABP electrodes with gel-matrix twice coating to attach efficiently onto cCerebral OrG onto electrodes. Usually, marketed electrode attaching floating OrG tends to be challenging. OrG often slips or moves away from the electrode, thus needing twice or triple-coating layers with gels, providing a great insight into our floating electrode plate novelty compared to other marketed electrodes. After the cCerebral OrG attachment was maintained and grown on the electrode plate for one week and treated with or without the combination of AB and tau (10 and 50 μg).
ICC is a common cellular protein or antigen-detecting and visualization technique that can recognize the target of interest or specific marker expression in cells via quantification imaging. […]

brain OrG = assay: NGL HT electrode plate signal of brain OrG; type: cell-based, human; conditions: 64000 Hz
Text: HT electroconductive sensing array combined with our optimized brain OrG is the first innovative technology that can be marketed for floating brain OrG for screening pathogens, drugs, and toxicity at a rapid and robust scale. Brain OrG-specific shape 1-3 mm range grown on an electroconductive plate designed and developed by NGL with pay-based service to obtain ECIS base electrode with a desired signal with or without agents. ECIS here refers to electric cell-substrate impedance sensing. We first developed 8 well plates with an electrode. […] We used a nanofarads capacitance (nF) signal curve at 64000 Hz. We determined that the media sample (without OrG, baseline) average signal is 3.7 nF compared to cerebral OrG (˜2 nF), and the same measurement was also acquired by resistance (Ohms).
To determine HT screening various agents, we designed and developed a next-generation HT electrode plate where brain OrG can grow in floating conditions with electrode chambers that can control OrG size without batch-to-batch variations. To develop these electrode sensor chambers (FIG. 7A-7B), we have designed and developed a typical 8×12 configuration that allows 96 samples to be measured and can be upgraded to 384 wells. […] These converters will sample at four times the excitation frequency, thus allowing both the amplitude and phase of the signal at V1 to V2 be measured with an algorithm.

Cur concentration in CSF (permeable into CSF / B-CSFb) [1]	Cur concentration in CSF (permeable into CSF / B-CSFb) ([1]; listed as unformulated Cur)	Molecule	behaviour when prepared with H2O [2]	synaptic proteins (synaptophysin and PSD-95) [3]	brain OrG-derived toxic response signal compared to untreated brain OrG (brain OrG)
not detected in CSF	undetected in CSF	COc1cc(/C=C/C(=O)CC(=O)/C=C/c2ccc(O)c(OC)c2)ccc1O [non-formulated Cur, curcumin]	precipitated on the bottom of the glass vial	–	–
–	–	AB: synthetic amyloid-beta (AB) oligomers, Alzheimer's disease toxic protein	–	unable to significantly reduce synaptic proteins	significantly and sensitively differentiated

— patent publication US20250320443A1, “Human Brain Organoid, methods for making the brain organoid, and methods of using the brain organoid for high throughput rapid screening and/or evaluation of agents” (NeyroblastGX LLC, priority 2023, published 2025)
